In publication PMC4210147, “Sequence-Specific Dimerization of a Transmembrane Helix in Amphipol A8-35” (PLoS ONE, 2014):
Entries after “also recorded” stand apart in the source; their conditions may differ. No end group written: not given here.

Experiments:
[1] = octylglucoside with A8-35 and other amphipols; ref [13]; cited from earlier work
[2] = Isothermal titration calorimetry, SDS demicellization in presence of A8-35; assay type: physicochemical; conditions: 25°C, 10 mM phosphate, 150 mM NaCl, pH 7.4
Description: ITC experiments were performed on a VP-ITC (GE Healthcare) at 25°C in 10 mM phosphate buffer (150 mM NaCl, pH 7.4). For demicellization experiments, 5-µL aliquots containing both, SDS at a concentration well above its CMC (10-13 mM) as well as A8-35 at concentrations of 5-140 µM, were injected into the sample cell containing the same amphipol concentration but no SDS. Time spans between injections were chosen long enough to allow for complete re-equilibration. Baseline subtraction and peak integration were accomplished using NITPIC [32], and the resulting isotherms were analyzed by nonlinear least-squares fitting in a spreadsheet program.
Thermal denaturation of MPs often leads to irreversible aggregation of the MP, and guanidine hydrochloride and urea, which are frequently used in unfolding studies involving soluble proteins, do typically not denature the TM regions of MPs. This is why the thermodynamic stability of integral MPs within membrane-mimetic systems is often assessed by titrating increasing concentrations of the anionic detergent SDS to MPs dissolved in a mild detergent, such as DDM [24], [40]-[44]. […] At low APol concentrations, the isotherms thus obtained resembled those measured in SDS demicellization experiments in the absence of APol. […]
Figure 5 Interactions of SDS with A8-35 monitored by isothermal titration calorimetry. […]

[3] = target: the molecule itself; assay: FRET or BRET; energy transfer at different acceptor mole ratios at constant total peptide concentration, in 5 µM and 50 µM A8-35
[4] = target: the molecule itself; assay: FRET or BRET; steady-state FRET at 0.5 µM peptide and 20 µM A8-35 (40:1) with increasing SDS added to preformed APol/GpA complexes; 25°C after incubation at 37°C; apparent constants; dimer to monomers
[5] = target: the molecule itself; assay: FRET or BRET; steady-state FRET of FL- and TAMRA-labelled peptide (0.25 µM each, 0.5 µM total) in Amphipol A8-35 at 5 to 75 µM; 10 mM HEPES pH 7.4, 150 mM NaCl; 25°C; apparent constants; dimer to monomers

Molecule: CCCCCCCCO[C@@H]1O[C@H](CO)[C@@H](O)[C@H](O)[C@H]1O [octylglucoside]
- mixing behavior with amphipols [1]: nearly ideal mixing behavior

Molecule: CCCCCCCCCCCCOS(=O)(=O)[O-].[Na+] [SDS, sodium dodecyl sulfate]
- mixing behavior of SDS with A8-35 ([2]; qualitative): follows a more complex pattern; also recorded: strongly non-ideal
- nonideality parameters of SDS/A8-35 mixing ([2]; regular mixing model, intermediate SDS contents, A8-35 5-140 µM): 3–4 RT

B1: GpA TM domain peptide (residues 69–101 of human glycophorin A) (peptide)
peptide: SEPEITLIIFGVMAGVIGTILLISYGIRRLIKK
modifications: also: N-terminal label: fluorescein or TAMRA
notes: glycophorin A, human, transmembrane domain, residues 69-101; Self-association is measured by FRET between the FL-labelled and the TAMRA-labelled copy of the same peptide, mixed in equal concentrations (0.25 µM each); both are written as one molecule; also called GpA TM peptide; GpA TM helix; source: synthetic peptide (custom-synthesized, Peptide Specialty Laboratories, Heidelberg)
- stoichiometry N [3]: 2
- fold increase of KD (SDS exceeding 1.5 mM against no SDS) [4]: ~10 fold
- Kd [5]: < 300 nM
